Patent publication US20230098637A1, “PROGNOSTIC PATHWAYS FOR HIGH RISK SEPSIS PATIENTS” (InnoSIGN B.V., priority 2020, published 2023)
“Also recorded” adds a separate entry of the source.

Experiments:
Assay type in all cases: cell-based
[1] = tested on: ER cellular signaling pathway; test: AR inhibitor experiment in LPS-stimulated monocytes (THP1), ER pathway activity; settings: THP1 monocytes cultured 24 hours with or without LPS, then with or without DHT
Experimental: (§1) FIG. 35 Schematic overview of AR inhibitor experiment. Depicts the experimental setup to determine if AR inhibitors can be used to mitigate the effect of LPS on monocytes (THP1 cells). In brief, monocyte cells (THP1) are cultured for 24 hours with or without LPS, after which the medium is changed and both conditions are subsequently cultured with or without DHT. Both LPS and DHT are anticipated to activate the AR cellular signaling pathway. In a parallel experiment, THP1 cells are first cultured for 24 hours with LPS, after which the medium is changed and the cells are cultured with one of ARCC-4, ARD-266, A-458 and bicalutamide.
as §1, with “describes” for “Schematic overview of AR inhibitor experiment. Depicts”, “set-up used.” for “setup to determine if AR inhibitors can be used to mitigate the effect of LPS on monocytes (THP1 cells).”
(§2) All experimental conditions were subjected to cellular signaling pathways analysis.

[2] = tested on: HH (Hedgehog) cellular signaling pathway; test: AR inhibitor experiment in LPS-stimulated monocytes (THP1), HH pathway activity; settings: THP1 monocytes cultured 24 hours with or without LPS, then with or without DHT
Experimental: as §1
as §1, with “describes” for “Schematic overview of AR inhibitor experiment. Depicts”, “set-up used.” for “setup to determine if AR inhibitors can be used to mitigate the effect of LPS on monocytes (THP1 cells).”
as §2

[3] = tested on: AR cellular signaling pathway; test: AR inhibitor experiment in LPS-stimulated monocytes (THP1), AR pathway activity; settings: THP1 monocytes cultured 24 hours with or without LPS, then with or without DHT
Experimental: as §1
as §1, with “describes” for “Schematic overview of AR inhibitor experiment. Depicts”, “set-up used.” for “setup to determine if AR inhibitors can be used to mitigate the effect of LPS on monocytes (THP1 cells).”
as §2

[4] = tested on: TGFbeta cellular signaling pathway; test: AR inhibitor experiment in LPS-stimulated monocytes (THP1), TGFbeta pathway activity; settings: THP1 monocytes cultured 24 hours with or without LPS, then with or without DHT
Experimental: as §1
as §1, with “describes” for “Schematic overview of AR inhibitor experiment. Depicts”, “set-up used.” for “setup to determine if AR inhibitors can be used to mitigate the effect of LPS on monocytes (THP1 cells).”
as §2

TGFBeta pathway = test: LPS stimulation of THP-1 cells, TGFBeta pathway activity; settings: LPS from E. coli 10, 50, 100 ng/ml, 24 hours, vs control
Experimental: (§3) To study the inflammation process we stimulated the monocytic THP-1 cells (ATCC® TIB-202™) using 3 different concentrations of LPS originated from E. coli ([…], 10 ng/ml, 50 ng/ml and 100 ng/ml) into culture medium (DMEM, supplemented with 10% FBS, 1% glutamax and 1% pen strep at 37° C. 5% CO2.) of THP-1 for 24 hours. After stimulation cells were harvested and RNA was extracted using the RNeasy mini kit (Qiagen, 74104). qPCR was performed using the Philips Research OncoSignal platform. […] The activation of the AR and TGFBeta pathways was also seen in sepsis samples confirms the role of these pathways in inflammation.

AR pathway = test: LPS stimulation of THP-1 cells, AR pathway activity (qPCR OncoSignal); settings: LPS from E. coli 10, 50, 100 ng/ml, 24 hours, vs control
Experimental: as §3

WNT pathway = test: LPS stimulation of THP-1 cells, WNT pathway activity; settings: LPS from E. coli 10, 50, 100 ng/ml, 24 hours, vs control
Experimental: as §3

FOXO pathway = test: LPS stimulation of THP-1 cells, FOXO pathway activity; settings: LPS from E. coli 10, 50, 100 ng/ml, 24 hours, vs control
Experimental: as §3

Compound	ER cellular signaling pathway activity [1]	HH cellular signaling pathway activity [2]	AR cellular signaling pathway activity [3]	TGFbeta cellular signaling pathway activity [4]	TGFBeta pathway activity (TGFBeta pathway)	AR pathway activity (AR pathway)	WNT pathway activity (WNT pathway)	FOXO pathway activity (FOXO pathway)
C[C@]12CCC(=O)C[C@@H]1CC[C@@H]1[C@@H]2CC[C@]2(C)[C@@H](O)CC[C@@H]12 [DHT]	not substantially affected	not substantially affected	increase	did not increase				
lipopolysaccharide [LPS]	not substantially affected	not substantially affected	able to stimulate; also recorded: increase	increased	increased	increased	increased	increased
